Laboratory results: patent publication US8481551B2, “Gyrase and topoisomerase IV inhibitors” (Vertex Pharmaceuticals Incorporated, priority 2011, dated 2013)
Where a name gives a salt, the structure may show the parent alone.

Test system: S. aureus (ATCC 29213)
Experiment: Mouse S. aureus kidney infection model
Assay type: in vivo, CD-1 mice
Method: Animals: female CD-1 mice (8-10 weeks of age; 6/group), were obtained from Charles River Laboratories and were housed and maintained in accordance with the Guide to the Care and Use of Experimental Animals. Methicillin-sensitive S. aureus (MSSA) strain ATCC 29213 was obtained from the American Type Culture Collection. To prepare stocks for animal studies S. aureus was plated on Mueller Hinton Agar plates and incubated at 37° C. overnight. 3-4 colonies from the plate were used to inoculate 5 mL Mueller Hinton Broth (MHB) that was incubated for 8 hours at 37° C. with shaking at 300 RPM. The 5 mL 8-hour culture was diluted 20-fold into 100 mL and incubated overnight (12-14 hours). The bacteria were pelleted for 20 minutes at 3000× and washed twice with Phosphate-Buffered Saline (PBS) containing 0.5% Bovine Serum Albumin (BSA). Aliquots (1 mL) containing ˜1×10^10 cfu in PBS/20% Glycerol were frozen and stored at −80° C. until the day of use. Stock titers were confirmed by serial dilution and plating on Mueller Hinton agar plates. Prior to inoculation, bacterial stocks were thawed and washed once with PBS/BSA. The stocks were then diluted with PBS/BSA to a final concentration of 1×10^9 cfu/mL to give an inoculum of approximately 1-2×10^8 cfu per mouse in a volume of 100 uL. […] Injections were given intravenously via the tail vein using a sterile 30 gauge needle. Upon completion of the mouse infections, the bacterial stocks used to challenge the mice were plated and counted to verify the concentration of the inocula. […] Fisher Scientific). During collection and homogenization all of the samples were kept on ice and the homogenizer was washed thoroughly and sterilized between each sample. Homogenates were serially diluted in sterile PBS/BSA and plated on MH agar to determine bacterial counts per pair of kidneys. CD-1 mice (6/group) were challenged IV with S. aureus (ATCC 29213) at 2×10^8 cfu/mouse. […] The 30-minute and 6-hour treatment groups were treated once, while the 24-hour group received a second treatment 10 hours after the first dose. […] Burdens from pairs of kidneys for each mouse and the median for each group of mice were calculated. CD-1 mice (6/group) were challenged IV with S. aureus (ATCC 29213) at 2×10^8 cfu/mouse. After 2 hours a single group of mice (Early Control (EC)) was euthanized and the kidneys harvested, homogenized and plated to quantitate S. aureus burdens. The additional groups of infected mice were treated via oral gavage with Vehicle at 10 ml/kg (10% VitE TPGS; […] After 24 hours the groups of treated mice were euthanized and the kidneys harvested, homogenized and plated to quantitate S. aureus burdens. Burdens from pairs of kidneys for each mouse and the median for each group of mice were summarized. CD-1 mice (8/group) were challenged IV with S. aureus (ATCC 29213) at 2×10^8 cfu/mouse. After 2 hours a single group of mice (Early Control (EC)) was euthanized and the kidneys harvested, homogenized and plated to quantitate S. aureus burdens. The additional groups of infected mice were treated via oral gavage with Vehicle at 10 ml/kg (Water; […] After 24 hours the groups of treated mice were euthanized and the kidneys harvested, homogenized and plated to quantitate S. aureus burdens. Burdens from pairs of kidneys for each mouse and the median for each group of mice were summarized.

[1] = 10 mg/kg oral gavage, second treatment 10 hours after first, 24 Hours
[2] = 10 mg/kg oral gavage, treated once, 6 Hours
[3] = 30 mg/kg oral gavage, second treatment 10 hours after first, 24 Hours
[4] = 30 mg/kg oral gavage, treated once, 6 Hours
[5] = 30 mg/kg oral gavage, treated once, 30 Minutes
[6] = 100 mg/kg oral gavage, second treatment 10 hours after first, 24 Hours
[7] = 100 mg/kg oral gavage, treated once, 6 Hours
[8] = 100 mg/kg oral gavage, treated once, 30 Minutes
[9] = single oral dose 10 mg/kg, after 24 hours
[10] = single oral dose 30 mg/kg, after 24 hours
[11] = single oral dose 60 mg/kg, after 24 hours
[12] = single oral dose 100 mg/kg, after 24 hours
[13] = single oral dose 16 (10) mg/kg Compound W, after 24 hours
[14] = single oral dose 49 (30) mg/kg Compound W, after 24 hours
[15] = single oral dose 99 (60) mg/kg Compound W, after 24 hours
[16] = single oral dose 166 (100) mg/kg Compound W, after 24 hours

CCNC(=O)Nc1nc2cc(-c3cnc(C(C)(C)O)nc3)c(F)c([C@H]3CCCO3)c2[nH]1 [Compound 23A, methanesulfonic acid salt of 1-ethyl-3-[6-fluoro-5-[2-(1-hydroxy-1-methyl-ethyl)pyrimidin-5-yl]-7-[(2R)-tetrahydrofuran-2-yl]-1H-benzimidazol-2-yl]urea]
Median Kidney Burden (Log cfu/kidneys) (10 mg/kg oral gavage 2 h post challenge, treated once, time of treatment 30 Minutes): 4.84 Log cfu/kidneys | Log Difference vs. Vehicle Control [1]: −1.87 | Median Kidney Burden (Log cfu/kidneys) [1]: 4.48 Log cfu/kidneys | Log Difference vs. Vehicle Control [2]: −0.37 | Median Kidney Burden (Log cfu/kidneys) [2]: 4.84 Log cfu/kidneys | Log Difference vs. Vehicle Control (10 mg/kg oral gavage, treated once, 30 Minutes): −0.14 | Log Difference vs. Vehicle Control [3]: −2.90 | Median Kidney Burden (Log cfu/kidneys) [3]: 3.44 Log cfu/kidneys | Log Difference vs. Vehicle Control [4]: −0.59 | Median Kidney Burden (Log cfu/kidneys) [4]: 4.62 Log cfu/kidneys | Log Difference vs. Vehicle Control [5]: 0.00 | Median Kidney Burden (Log cfu/kidneys) [5]: 4.97 Log cfu/kidneys | Log Difference vs. Vehicle Control [6]: −2.86 | Median Kidney Burden (Log cfu/kidneys) [6]: 3.49 Log cfu/kidneys | Log Difference vs. Vehicle Control [7]: −0.66 | Median Kidney Burden (Log cfu/kidneys) [7]: 4.55 Log cfu/kidneys | Log Difference vs. Vehicle Control [8]: −0.08 | Median Kidney Burden (Log cfu/kidneys) [8]: 4.89 Log cfu/kidneys | kidney burden, compound- versus vehicle-treated mice (30 minutes after the initial treatment, 10, 30, 100 mg/kg oral): no difference in kidney burden | log reduction versus the 30 minute early control (6 hours after the first dose, 30 and 100 mg/kg oral): 0.3-0.4 log | reduction of bacterial burdens in the kidneys versus time-matched vehicle control (6 hours after the first dose, all compound treatments (10, 30, 100 mg/kg oral)): 0.4-0.6 logs | log reduction versus the 24-hour vehicle-treated control (24 hours, 10 mg/kg BID oral): 1.8 log | log reduction versus the 24-hour vehicle-treated control (24 hours, 30 and 100 mg/kg BID oral): 2.8-2.9 log | log reductions versus the 30-minute vehicle-treated control (24 hours, 30 and 100 mg/kg oral): approximately 1.5 log | Median Kidney Burden (Log cfu/kidneys) (single oral dose 10 mg/kg 2 h post challenge, after 24 hours): 4.73 Log cfu/kidneys | Log Reduction vs. Early Control [9]: 0.00 | Log Reduction vs. Late Control [9]: −1.90 | log reductions versus vehicle control [9]: 1.9 log | Log Reduction vs. Early Control [10]: −0.40 | Log Reduction vs. Late Control [10]: −2.31 | Median Kidney Burden (Log cfu/kidneys) [10]: 4.32 Log cfu/kidneys | log reductions versus vehicle control [10]: 2.3 log | Log Reduction vs. Early Control [11]: −1.21 | Log Reduction vs. Late Control [11]: −3.11 | Median Kidney Burden (Log cfu/kidneys) [11]: 3.52 Log cfu/kidneys | log reductions versus vehicle control [11]: 3.1 log | Log Reduction vs. Early Control [12]: −1.42 | Log Reduction vs. Late Control [12]: −3.32 | Median Kidney Burden (Log cfu/kidneys) [12]: 3.31 Log cfu/kidneys | log reductions versus vehicle control [12]: 3.3 log | reduction of bacterial burdens versus the early control (single oral doses of 60 and 100 mg/kg, after 24 hours): 1.2-1.4 logs

CCNC(=O)Nc1nc2cc(-c3cnc(C(C)(C)OP(=O)([O-])[O-])nc3)c(F)c([C@H]3CCCO3)c2[nH]1.[Na+].[Na+] [Compound W, disodium (R)-2-(5-(2-(3-ethylureido)-6-fluoro-7-(tetrahydrofuran-2-yl)-1H-benzo[d]imidazol-5-yl)pyrimidin-2-yl)propan-2-yl phosphate]
Median Kidney Burden (Log10 CFU/kidneys) (single oral dose 16 (10) mg/kg Compound W (dose equivalent in brackets), after 24 hours): 3.69 Log10 CFU/kidneys | Log10 Difference vs. Early Control [13]: −0.71 | Log10 Difference vs. Late Control [13]: −2.25 | Log10 Difference vs. Early Control [14]: −1.18 | Log10 Difference vs. Late Control [14]: −2.72 | Median Kidney Burden (Log10 CFU/kidneys) [14]: 3.22 Log10 CFU/kidneys | Log10 Difference vs. Early Control [15]: −1.08 | Log10 Difference vs. Late Control [15]: −2.62 | Median Kidney Burden (Log10 CFU/kidneys) [15]: 3.32 Log10 CFU/kidneys | Log10 Difference vs. Early Control [16]: −1.46 | Log10 Difference vs. Late Control [16]: −3.00 | Median Kidney Burden (Log10 CFU/kidneys) [16]: 2.94 Log10 CFU/kidneys | reduction of bacterial burdens versus the early control (single oral doses of 16, 49, 99 and 166 mg/kg Compound W, after 24 hours): 0.7-1.5 logs
